Data from patent publication US8940865B2, “Myocardial peptide, preparation method and uses thereof” (Dalian Zhen-Ao Pharmaceutical Co, Ltd., priority 2008, dated 2015).

Columns and labels:
[1] = system: ischemia/reperfusion damaged rat; experiment: Therapeutic administration, ischemia/reperfusion (LAD ligation) rat model; format: in vivo, SD rat; settings: therapeutic i.v. 5 minutes after ligation, Dosage 1.0 mg/kg
Method: (§1) Intraperitoneal injecting 6% Urethane with 20 ml/kg to anaesthetize the animal, fixing the animal on operating table in supine position; being connected with the electrocardiograph to detect the limb II lead electrocardiogram, tracheal intubating and connecting the animal with respirators, taking continuous positive end-expiratory pressure with tidal volume of 6 ml/200 g, frequency of 55/min and breathing ratio of 2:1. Carrying out thoracotomy on the gap between the forth and the fifth ribs of the left border of sternum, separating the ribs and removing the pericardium. Ligating at the left anterior descending coronary artery by using 6/0 silk suture by the sign of left auricle lower margin, and setting a piece of polyethylene pipe with diameter of 1 mm between the ligation silk suture and blood vessel. Ligating the silk suture to press the left anterior descending coronary artery by the polyethylene pipe and cause myocardial ischemia. Taking part of myocardium becoming grey and electrocardiogram S-T segment raising as the sign of that the left anterior descending coronary artery is ligated successfully. Taking out the polyethylene pipe carefully to cause the reperfusion. Verifying the success of reoxygenation by reactive hyperemia of ischemia area and the descending of the raised S-T segment by ½. Reoxygenation for 30 minutes, then sampling blood from abdominal aorta to prepare serum which is used to measure the biochemical index (measuring the content of CK, LDH, MDA, SPD according to the Reagent kits Instruction).
(§2) Rat's heart was taken and after being blooded, the residual blood in the ventricle was cleaned by normal saline to weight the weight of whole heart. Fat was removed, the heart was crosscut into 4˜5 pieces and was put into a tube, to be carried out NBT dye at 37° C. (dying the normal tissue rather than the ischemic tissue), taking photographs. The ischemic area of the myocardium was cut to take a weighing, and then the myocardial infarct size (MIS) was calculated by the ratio of weight of the ischemic area of the myocardium to whole heart weight, which was present by percentage.
The drug was intravenously injured on the tail 5 minutes after ligation of LAD, then reperfusion was carried out for 30 min 30 minutes after ligation of LAD. Heart was taken after sampling blood from abdominal aorta. The biochemical index and the myocardial infarction size were measure by using the above method.

[2] = system: ischemia/reperfusion damaged rat; experiment: Preventive administration, ischemia/reperfusion (LAD ligation) rat model; format: in vivo, SD rat; settings: preventive i.v. 30 min before ligation, Dosage 1.0 mg/kg
Method: 70 SD rats (250˜300 g per rat) were taken, wherein, 60 rats were divided into 6 groups evenly and randomly according to weight, every 10 of each group, the remains are kept for replacement of dead animals of each group.
Normal Control Group: carrying out sham operation, threading a silk suture through the left anterior descending coronary artery (LAD) without ligation;
Model Group: intravenous injecting saline solution of 5 ml/kg 30 minutes before ligation, and the preparation of hypoxia/reoxygenation model is the same as Normal Control Group;
Positive Control Group: intravenous injecting Verapamil of 1 ml/kg 30 min before ligation, preparation of the hypoxia/reoxygenation model is the same as Normal Control Group. […]
Preparation of the Model:
as §1, §2

[3] = system: primary culture myocardium cell damaged by hypoxia/reoxygenation; experiment: Anti-hypoxia/reoxygenation injury effect on primary culture myocardium cell (MTT); format: cell-based, Neonatal SD rat
Description: Take ventricle from Neonatal SD rat, wash with D-Hank's and cut to small pieces, digest with collagenase II to obtain the myocardium cell and fibroblast, which are cultivated with high glucose DMEM (dmem-h-15) culture medium containing 15% fetal bovine serum. Remove the fibroblast through differential adhesion and chemistry method, and inoculate myocardium cell on the 96-well plates.
2.1.3 Anti-Hypoxia/Reoxygenation Injury Effect of CMPC to Primary Culture Myocardium Cell.
Cell cultivation method is the same as that in 2.1.1
Preparation of model: Preparing the model by using the myocardium cell cultured for 48˜72 h, dividing the cell on the culture plate to following groups: Control Group, Model Group, Verapamil Group (2, 0.4, 0.08 mg/l final concentration) and CMPM Group (final concentration of 50, 10, 2, 0.4, 0.08, 0.016, 0.0032 mg/l), 3 wells for every group. Except the Control Group, the other groups are prepared by following method: placing the monolayer myocardium cell on center of culture plate on low glucose medium (containing Verapamil or CMPM with corresponding concentration), then placing the culture plate into the vacuum drying machine, filling nitrogen, and hermetically culturing, causing myocardial injury after oxygen lack for 15 hours, then being cultured for 1 hour by high glucose DMEM medium (95% atmosphere and 5% CO2) to cause reoxygention injury. Measuring the absorbance value at 540 nm by using MTT method, and the same as above, calculating the protective rate to figure out EC50.

[4] = system: primary culture myocardium cell damaged by adriamycin; experiment: Effect of CMPC against adriamycin injury of primary culture myocardium cell (MTT); format: cell-based, Neonatal SD rat
Method: Remove the fibroblast through differential adhesion and chemistry method, and inoculate myocardium cell on the 96-well plates.
2.1.2 The Against Function of Cmpc to Injury of Adriamycin to Primary Culture Myocardium Cell.
Cell culture method is the same as 2.1.1
Preparation of model: Blank Control Group: cultivating myocardium cell with DMEM-H-15;
Model Group: adding 1 mg/L adriamycin, washing the plate with DMEM-H-15 two times after being cultivated for 1 h, adding DMEM-H-15 for cultivation;
Protective rate=(Ax−Amodel)/(Acontrol−Amodel)×100%;
(Ax, Amode, Acontrol respectively represent Absorbance value of Drug administration groups, Model Group and Blank control group.

COc1ccc(CCN(C)CCCC(C#N)(c2ccc(OC)c(OC)c2)C(C)C)cc1OC (stereo not shown) [Positive Control Group, Verapamil, reference compound]
CK ([1]; rat serum): 1.777 ± 0.389 U/ml
LDH ([1]; rat serum): 6791.96 ± 570.85 U/L
MDA ([1]; rat serum): 4.960 ± 0.338 nmol/mL
SOD ([1]; rat serum): 140.36 ± 14.00 U/ml
MIS (myocardial infarct size) [1]: 4.07 ± 1.56 %
MIS (myocardial infarct size) ([2]; ischemic area weight/whole heart weight): 4.19 ± 0.70 %
CK ([2]; rat serum): 2.087 ± 0.432 U/ml
LDH ([2]; rat serum): 7376.09 ± 784.64 U/L
MDA ([2]; rat serum): 4.755 ± 0.718 nmol/mL
SOD ([2]; rat serum): 135.63 ± 7.878 U/ml
% (protective rate) ([3]; Plate 1, Dosage 0.08 mg/L): 14.16%
A540 ([3]; Plate 1, Dosage 0.08 mg/L): 0.524 ± 0.036
% (protective rate) ([3]; Plate 1, Dosage 0.4 mg/L): 20.15%
A540 ([3]; Plate 1, Dosage 0.4 mg/L): 0.541 ± 0.029
% (protective rate) ([3]; Plate 1, Dosage 2 mg/L): 12.87%
A540 ([3]; Plate 1, Dosage 2 mg/L): 0.520 ± 0.060
% (protective rate) ([3]; Plate 2, Dosage 0.08 mg/L): 23.85%
A540 ([3]; Plate 2, Dosage 0.08 mg/L): 0.553 ± 0.031
% (protective rate) ([3]; Plate 2, Dosage 0.4 mg/L): 33.18%
A540 ([3]; Plate 2, Dosage 0.4 mg/L): 0.579 ± 0.028
% (protective rate) ([3]; Plate 2, Dosage 2 mg/L): 29.63%
A540 ([3]; Plate 2, Dosage 2 mg/L): 0.569 ± 0.029
% (protective rate) ([3]; Plate 3, Dosage 0.08 mg/L): 30.62%
A540 ([3]; Plate 3, Dosage 0.08 mg/L): 0.787 ± 0.020
% (protective rate) ([3]; Plate 3, Dosage 0.4 mg/L): 35.44%
A540 ([3]; Plate 3, Dosage 0.4 mg/L): 0.795 ± 0.022
% (protective rate) ([3]; Plate 3, Dosage 2 mg/L): 41.37%
A540 ([3]; Plate 3, Dosage 2 mg/L): 0.805 ± 0.018
% (protective rate) ([4]; Plate 1, Dosage 0.08 mg/L): 31.53%
A540 ([4]; Plate 1, Dosage 0.08 mg/L): 0.694 ± 0.110
% (protective rate) ([4]; Plate 1, Dosage 0.4 mg/L): 50.23%
A540 ([4]; Plate 1, Dosage 0.4 mg/L): 0.714 ± 0.021
% (protective rate) ([4]; Plate 1, Dosage 2 mg/L): 46.83%
A540 ([4]; Plate 1, Dosage 2 mg/L): 0.710 ± 0.099
% (protective rate) ([4]; Plate 2, Dosage 0.08 mg/L): 30.45%
A540 ([4]; Plate 2, Dosage 0.08 mg/L): 0.749 ± 0.031
% (protective rate) ([4]; Plate 2, Dosage 0.4 mg/L): 30.29%
A540 ([4]; Plate 2, Dosage 0.4 mg/L): 0.749 ± 0.050
% (protective rate) ([4]; Plate 2, Dosage 2 mg/L): 46.68%
A540 ([4]; Plate 2, Dosage 2 mg/L): 0.767 ± 0.045
% (protective rate) ([4]; Plate 3, Dosage 0.08 mg/L): 30.09%
A540 ([4]; Plate 3, Dosage 0.08 mg/L): 0.755 ± 0.021
% (protective rate) ([4]; Plate 3, Dosage 0.4 mg/L): 37.28%
A540 ([4]; Plate 3, Dosage 0.4 mg/L): 0.770 ± 0.012
% (protective rate) ([4]; Plate 3, Dosage 2 mg/L): 36.18%
A540 ([4]; Plate 3, Dosage 2 mg/L): 0.768 ± 0.013
